# Laboratory results: patent US20250002467A1, “DESIGN, SYNTHESIS AND MECHANISMS OF ANTICANCER ACTIVITY OF NEW ACETYLATED 5-AMINOSALICYLATE-THIAZOLINONE HYBRID DERIVATIVES” (University of Sharjah, priority 2023, published 2025)
# Experiments:
# A549 = assay: SRB cytotoxicity assay, A549; type: cell-based
# Excerpt: (§1) Eight different cancer cell lines were acquired from the Radiobiology and Experimental Radio Oncology lab, University Medical Center, Hamburg University, Hamburg, Germany. MCF7, MDA-MB-231 (breast cancer), and A549 (lung cancer) cells were maintained in RPMI medium while HCT116 (colon cancer), HepG2 (liver cancer), U87, U373 (glioblastoma), and HeLa (cervical cancer) were maintained in DMEM supplemented with 10% FBS and 1% penicillin/streptomycin (Sigma Aldrich, Missouri, USA). Normal human fibroblast (F180) cells were maintained in DMEM supplemented with 15% FBS. Normal human mammary epithelial cell line (HME1) were maintained in DMEM/F-12 medium supplemented with 10% FBS. All incubations were done at 37° C. in a humidified atmosphere of 5% CO2. All cell lines were authenticated by short tandem repeat (STR) profiling. The CDK4 knockout cells (provided by Dr. Samrein Ahmed, University of Sharjah, United Arab Emirates) were generated by CRISPR-CAS9 technology and were maintained in DMEM supplemented with 10% FBS.
# (§2) The cytotoxic effects of HH32 and HH33 compounds were evaluated at various concentrations ranging from 0.0001 to 100 μM by sulphrhodamine-B (SRB) assay as described previously. The anti-proliferative activity was expressed as growth inhibitory concentration (IC50) values, which were calculated by the sigmoidal dose-response curve fitting method using Graph pad prism 6 software (GraphPad Software, San Diego, CA, USA).
# MCF7 = assay: SRB cytotoxicity assay, MCF7; type: cell-based
# Excerpt: as §1, §2
# U373 = assay: SRB cytotoxicity assay, U373; type: cell-based
# Excerpt: as §1, §2
# HME1 = assay: SRB cytotoxicity assay, normal mammary epithelial HME1; type: cell-based, human; conditions: mean ± SEM
# Excerpt: as §1, with “The CDK4 knockout cells (provided by Dr. Samrein Ahmed, University of Sharjah, United Arab Emirates) were generated by CRISPR-CAS9 technology and were maintained in DMEM supplemented with 10% FBS.” left out
# as §2
# U87 = assay: SRB cytotoxicity assay, U87; type: cell-based
# Excerpt: as §1, §2
# HeLa = assay: SRB cytotoxicity assay, HeLa; type: cell-based
# Excerpt: as §1, §2
# F-180 = assay: SRB cytotoxicity assay, normal fibroblast F-180; type: cell-based, human; conditions: F-180 normal fibroblast, mean ± SEM
# Excerpt: as §1, §2
# HCT-116 = assay: SRB cytotoxicity assay, HCT-116; type: cell-based
# Excerpt: as §1, §2
# MDA-MB-231 = assay: SRB cytotoxicity assay, MDA-MB-231; type: cell-based
# Excerpt: as §1, §2
# HepG2 = assay: SRB cytotoxicity assay, HepG2; type: cell-based
# Excerpt: as §1, §2
compound,measurement,setting,value
"COc1cccc2c1C(=O)c1c(O)c3c(c(O)c1C2=O)C[C@@](O)(C(=O)CO)C[C@@H]3O[C@H]1C[C@H](N)[C@H](O)[C@H](C)O1 [DOX, Doxorubicin, reference compound]",Selectivity index,A549; F180 versus A549,0.47
same,Selectivity index,A549; HME1 versus A549,1.81
same,IC50,"A549; Homo sapiens, A549, SRB, mean ± SEM",620 ± 590 nM
same,Selectivity index,MCF7; F180 versus MCF7,4.8
same,Selectivity index,MCF7; HME1 versus MCF7,18.7
same,IC50,"MCF7; Homo sapiens, MCF7, SRB, mean ± SEM",60 nM
same,Selectivity index,U373; F180 versus U373,0.33
same,Selectivity index,U373; HME1 versus U373,1.3
same,IC50,"U373; Homo sapiens, U373 MG, U373, SRB, mean ± SEM",880 ± 90 nM
same,IC50,HME1; HME1 normal epithelial,1120 ± 190 nM
same,IC50,"HME1; Homo sapiens, HME1, HME1 normal epithelial",< 1200 nM
same,Selectivity index,U87; F180 versus U87,2.9
same,Selectivity index,U87; HME1 versus U87,11.2
same,IC50,"U87; Homo sapiens, U-87 MG, U87, SRB, mean ± SEM",100 ± 90 nM
same,Selectivity index,HeLa; F180 versus HeLa,0.6
same,Selectivity index,HeLa; HME1 versus HeLa,2.4
same,IC50,"HeLa; Homo sapiens, HeLa, SRB, mean ± SEM",460 ± 460 nM
same,IC50,F-180,290 ± 370 nM
same,IC50,F-180; listed as doxorubicin,< 1200 nM
same,Selectivity index,HCT-116; F180 versus HCT116,2.6
same,Selectivity index,HCT-116; HME1 versus HCT116,10.2
same,IC50,"HCT-116; Homo sapiens, HCT-116, SRB, mean ± SEM",110 nM
same,Selectivity index,MDA-MB-231; F180 versus MDA-MB-231,0.64
same,Selectivity index,MDA-MB-231; HME1 versus MDA-MB-231,2.5
same,IC50,"MDA-MB-231; Homo sapiens, MDA-MB-231, SRB, mean ± SEM",450 ± 110 nM
same,Selectivity index,HepG2; F180 versus HepG2,0.78
same,Selectivity index,HepG2; HME1 versus HepG2,3.02
same,IC50,"HepG2; Homo sapiens, HepG2, SRB, mean ± SEM",370 ± 120 nM
